The nature of this series: photoluminescence quantum yield (fraction); solvent given as SMILES.

Molecules are shown by their SMILES. Where “and” joins values, the source holds several entries; their conditions need not be identical. Identical values can stand only once.

As to `CCC1(CC)c2cc(C#Cc3cc(C#Cc4ccc5c(c4)C(CC)(CC)c4cc(N(c6ccccc6)c6ccccc6)ccc4-5)c4ccc5c(C#Cc6ccc7c(c6)C(CC)(CC)c6cc(N(c8ccccc8)c8ccccc8)ccc6-7)cc(C#Cc6ccc7c(c6)C(CC)(CC)c6cc(N(c8ccccc8)c8ccccc8)ccc6-7)c6ccc3c4c65)ccc2-c2ccc(N(c3ccccc3)c3ccccc3)cc21`, the photoluminescence quantum yield (in Cc1ccccc1) amounted to 0.43.
For the compound `COc1ccc(-c2ccc3c(c2)[Si](C)(C)c2cc(-c4ccc(OC)cc4)ccc2C=C3)cc1`, for the setting “in ClCCl”, the photoluminescence quantum yield was found to be 0.93.
`N#Cc1c(C#N)c2cc(F)ccc2c2ccc(F)cc12` yielded a photoluminescence quantum yield (in ClC(Cl)Cl) of 0.08.
`CCn1c(-c2ccc(-c3ccc4ccc5cccc6ccc3c4c56)cc2)c(-c2ccc3ccccc3c2)c(-c2ccc3ccccc3c2)c1-c1ccc(-c2ccc3ccc4cccc5ccc2c3c45)cc1` had a photoluminescence quantum yield (in CCOC(C)=O) of 0.99.
Turning to `Oc1ccc2ncccc2c1`, the photoluminescence quantum yield reads like this: (in CC#N) 0.088; (in CCCC#N) 0.086; (in CO) 0.107; (in Cc1ccccc1) 0.008; (in ClCCl) 0.043.
For the compound `CC(C)c1cc(C(C)C)c(-c2nnc(-c3ccc(-n4c5ccccc5c5ccccc54)cc3)o2)c(C(C)C)c1`, for the setting “in Cc1ccccc1”, the photoluminescence quantum yield came to 0.61.
Compound `N#Cc1c(C#N)c2ccccc2c2ccccc12` had a photoluminescence quantum yield (in ClC(Cl)Cl) of 0.17.
For the setting “in O”, `CC[n+]1nc2ccc(N(C)C)cc2c2cc(C)ccc21` gave a photoluminescence quantum yield of 0.003.
Consider `Nc1n[n+]([O-])c2ccccc2[n+]1[O-]`, for which the photoluminescence quantum yield stood at 0.006 (in CC#N) and 0.0033 (in O).
Turning to `CC(C)[Si]1(C(C)C)c2cc(N(C)C)ccc2-c2ccc(C(F)(F)F)cc21`, the photoluminescence quantum yield amounted to 0.37 (in C1CCCCC1); 0.4 (in CC#N); 0.28 (in CCO); 0.35 (in CCOCC); 0.17 (in CS(C)=O); 0.33 (in ClCCl). The same compound registered a photoluminescence quantum yield (in c1ccccc1) of 0.29.
Under “in CCO”, `Nc1ccc2nc3c4ccccc4c(=[NH2+])cc-3oc2c1` yielded a photoluminescence quantum yield of 0.582.
`CCCn1c2cccc3oc4cccc5c4[c+](c32)c2c1cccc2n5CCC`: the photoluminescence quantum yield came to 0.44 (in CC#N), 0.41 (in CO), 0.46 (in ClCCl) and 0.39 (in OCC(O)CO).
`FC(F)(F)c1ccc(-c2ccc(-c3cc(-c4ccccn4)nc(-c4ccccn4)c3)cc2)cc1`: the photoluminescence quantum yield (in ClCCl) turned out to be 0.17.
With `CCCCCCCCCCCCC(CCCCCCCCCC)Cn1c2cc(C=C(C#N)C#N)c3cccc4c5cccc6c(C=C(C#N)C#N)cc1c(c65)c2c34` (stereo not drawn), the photoluminescence quantum yield (in C1CCCCC1) is 0.13, the photoluminescence quantum yield (in CC#N) worked out at 0.151, the photoluminescence quantum yield (in Cc1ccccc1) was determined as 0.138 and the photoluminescence quantum yield (in ClCCl) was 0.115.
With `Cc1ccc2nc3cc4ccccc4cc3c(-c3ccccc3)c2c1`, the photoluminescence quantum yield (in ClCCl) amounted to 0.47.
In the case of `CCCCCCC(CCCCCC)N1C(=O)c2cccc3c(-c4ccc(N(C)C)cc4)ccc(c23)C1=O`, the photoluminescence quantum yield was found to be 0.7 (in CCCCCC); 0.73 (in CCCCCCCCCCCCCC); 0.14 (in CCCCCCCCCCCO); 0.013 (in CCCCO); 0.0037 (in CN(C)C=O); 0.65 (in Cc1ccccc1). For the same compound, where the note is “in ClC(Cl)Cl”, the photoluminescence quantum yield stood at 0.64.
The compound `CCCCCCc1ccc(-n2c3c4cccc(OC)c4nnc3c3c2c2nnc4c(OC)cccc4c2n3-c2ccc(CCCCCC)cc2)cc1` returned a photoluminescence quantum yield (in Cc1ccccc1) of 0.
With `C1=C(c2ccccc2)C(c2ccccc2)=CC1c1ccccc1`, where the note is “in C1CCOC1”, the photoluminescence quantum yield turned out to be 0.0137.
Consider `O=c1c2ccccc2c2c(C#C[Si](c3ccccc3)(c3ccccc3)c3ccccc3)c3c(=O)c4ccccc4c3c(C#C[Si](c3ccccc3)(c3ccccc3)c3ccccc3)c12`, for which, under “in ClC(Cl)Cl”, the photoluminescence quantum yield came out at 0.09.
Consider `C#Cc1ccc(/C2=c3\cc/c([nH]3)=C(\c3ccc(C#C)cc3)C3=N/C(=C(/c4cc(C(C)(C)C)cc(C(C)(C)C)c4)c4cc(c[nH]4)/C(c4cc(C(C)(C)C)cc(C(C)(C)C)c4)=C4/C=CC2=N4)C=C3)cc1`, for which, under “in CC(=O)N(C)C”, the photoluminescence quantum yield amounted to 0.0578.
Consider `C=CCNc1ccc2ccc3oc4cc(=O)ccc-4nc3c2c1`, for which the photoluminescence quantum yield is 0.03 (in CC#N), 0.04 (in CCO), 0.06 (in ClCCl) and 0.007 (in O).
With `CCCCN1c2ccc(/C=C/c3cc(=O)oc4cc(C)ccc34)cc2Sc2cc(/C=C/c3cc(=O)oc4cc(C)ccc34)ccc21`, where the note is “in ClC(Cl)Cl”, the photoluminescence quantum yield was 0.83.
Where the note is “in ClCCl”, `O=c1oc2ccccc2cc1-c1ccc(-c2ccc(-c3cc4ccccc4oc3=O)cc2)cc1` came in with a photoluminescence quantum yield of 0.49.
In the case of `Cc1ccc(C2=C3C=CC([Se]c4ccccc4)=[N+]3[B-](F)(F)n3c([Se]c4ccccc4)ccc32)cc1`, the photoluminescence quantum yield (in C1CCOC1) is 0.56.
In the case of `COc1ccccc1C1=C2C(C)=CC(C)=[N+]2[B-](F)(F)n2c(C)cc(C)c21`, the photoluminescence quantum yield by setting is: (in C1CCOC1) 0.87; (in CC#N) 0.57; (in CC(=O)C(C)(C)C) 0.74; (in CC(C)=O) 0.78; (in CCCCCC) 0.98; (in CCOC(C)=O) 0.76. Under “in CO”, the photoluminescence quantum yield came to 0.69.
`N#Cc1cc(C#N)c(-n2c3ccccc3c3cc(-c4ccc5c(c4)c4ccccc4n5-c4cc(-n5c6ccccc6c6ccccc65)c(C#N)cc4C#N)ccc32)cc1-n1c2ccccc2c2ccccc21` came in with a photoluminescence quantum yield (in O=P(c1ccccc1)(c1ccccc1)c1ccccc1Oc1ccccc1P(=O)(c1ccccc1)c1ccccc1) of 0.87.
`Cc1c(C)c(B(c2c(C)c(C)c(C#N)c(C)c2C)c2c(C)c(C)c(N3c4ccccc4Oc4ccccc43)c(C)c2C)c(C)c(C)c1C#N` returned a photoluminescence quantum yield (in c1ccc([Si](c2ccccc2)(c2ccc(-n3c4ccccc4c4ccccc43)cc2)c2ccc(-n3c4ccccc4c4ccccc43)cc2)cc1) of 0.67.
The compound `O=c1oc2ccccc2cc1/C=C/c1ccc([N+](=O)[O-])cc1` registered a photoluminescence quantum yield (in CC#N) of 0.04.
Turning to `CC1(C)c2ccccc2N(c2ccc(S(=O)(=O)c3ccc(N4c5ccccc5C(C)(C)c5ccccc54)cc3)cc2)c2ccccc21`, the photoluminescence quantum yield reads like this: (in C1COCCO1) 0.8; (in CC(C)=O) 0.59; (in Cc1ccccc1) 0.8; (in ClC(Cl)Cl) 0.8; (in c1cc(-n2c3ccccc3c3ccccc32)cc(-n2c3ccccc3c3ccccc32)c1) 0.8.
For the compound `CCCCCCOc1cc(N(CC)CC)ccc1/C=C/C(=C(C#N)C#N)c1ccc2c(c1)c1ccccc1n2CC`, the photoluminescence quantum yield (in ClCCl) was found to be 0.121.
Under “in Cc1ccccc1”, `N#Cc1c(-n2c3ccccc3c3ccccc32)cc(N2c3ccccc3C(c3ccccc3)(c3ccccc3)c3ccccc32)cc1-n1c2ccccc2c2ccccc21` gave a photoluminescence quantum yield of 0.27.
`CCCCCCCCCCCCn1cccc1/C=C/c1ccc(/C=C/c2cccn2CCCCCCCCCCCC)cc1` displayed a photoluminescence quantum yield (in Cc1ccccc1) of 0.32.
On to `CC1(C)C(/C=C/c2cc3ccc(O)cc3oc2=O)=[N+](CCCS(=O)(=O)[O-])c2ccccc21`, for which the photoluminescence quantum yield reads like this: (in CCO) 0.049; (in CS(C)=O) 0.023; (in O) 0.007.
`CCCCCOc1cc2oc(=O)c3c4ccc(N(c5ccccc5)c5ccccc5)cc4c4ccc5cccc6c(c1)c2c3c4c56` came in with a photoluminescence quantum yield (in C1CCOC1) of 0.752.
`CC1=[N+]2C(=C(c3c4ccccc4cc4ccccc34)c3ccc(C)n3[B-]2(F)F)C=C1`: the photoluminescence quantum yield is, setting by setting: (in C1CCOC1) 0.002; (in CC#N) 0.002; (in CCO) 0.005; (in CN(C)C=O) 0.003; (in CO) 0.001; (in CS(C)=O) 0.002. Moreover, the photoluminescence quantum yield is 0.29 (in Cc1ccccc1); 0.01 and 0.004 (in ClC(Cl)Cl).
The compound `CC(C)(C)c1ccc(-n2c(-c3ccc(-c4ccc(N(c5ccccc5)c5ccccc5)cc4)cc3)nc3c4ccccc4c4ccccc4c32)cc1` displayed a photoluminescence quantum yield (in ClCCl) of 1.
Take `CCCCC(CC)CN1C(=O)C2=C(c3ccc(-c4ccc(C5=C6C(C)=CC(C)=[N+]6[B-](F)(F)n6c(C)cc(C)c65)cc4)s3)N(CC(CC)CCCC)C(=O)C2=C1c1cccs1` (stereo not drawn): the photoluminescence quantum yield (in Cc1ccccc1) stood at 0.57.
Consider `c1ccc(-c2nn(-c3ccccc3)c3nc4ccc(-n5c6ccccc6c6ccccc65)cc4cc23)cc1`, for which the photoluminescence quantum yield reads like this: (in C1CCCCC1) 0.88; (in C1CCOC1) 0.81; (in CC#N) 0.72; (in CC(C)=O) 0.72; (in CCCCCl) 0.88; (in CCCCOCCCC) 0.7. The compound also gave a photoluminescence quantum yield (in CN(C)C=O) of 0.76.
As for `CCC12C(=C3C(=C4c5ccc(-c6ccc(C(C)=O)s6)cc5S(=O)(=O)C41CC)C(F)(F)C(F)(F)C3(F)F)c1ccc(-c3ccc(C(C)=O)s3)cc1S2(=O)=O` (stereo not drawn), the photoluminescence quantum yield (in C1COCCO1) was 0.61.
`CC(C)[Si](C#Cc1c2cc3ccccc3cc2c(C#C[Si](C)(C)C)c2cc3ccccc3cc12)(C(C)C)C(C)C`: the photoluminescence quantum yield (in ClCCl) was 0.13.
Compound `C[N+]1=C(/C=C/C=C2/N(CCC[N+](C)(C)C)c3ccccc3C2(C)C)C(C)(C)c2ccccc21` had a photoluminescence quantum yield (in CS(C)=O) of 0.08.
On to `CCCC1=Cc2nc1ccc1[nH]c(cc1CCOC)c1nc(ccc3[nH]c2cc3CCC)C(CCOC)=C1`, for which, under “in Cc1ccccc1”, the photoluminescence quantum yield stood at 0.54.
Take `CN(C)c1ccc2c(c1)C(=O)c1ccccc1-2`: the photoluminescence quantum yield by setting is: (in C1CCCCC1) 0.0087; (in c1ccccc1) 0.0012.
In the case of `c1ccc(-c2nnc(-c3cc(-n4c5ccccc5c5ccccc54)c(-n4c5ccccc5c5ccccc54)cc3-c3nnc(-c4ccccc4)o3)o2)cc1`, the photoluminescence quantum yield (in Cc1ccccc1) was 0.383.
`CC(C)(C)C1CCC(=CS/C=C/c2ccc(/C=C/SC=C3CCC(C(C)(C)C)CC3)cc2)CC1` (stereo not drawn) gave a photoluminescence quantum yield (in ClCCl) of 0.031.
On the same count and under the same terms, in the case of `Cc1c(C(=O)c2ccccc2)c2ccc3cccc4c5cccc6ccc1c(c65)c2c34` it was 0.02.
